Reference: patent publication US7659293B2, “α-Amino-N-hydroxy-acetamide derivatives” (Novartis AG, priority 2001, dated 2010)
Structures can show the parent of a compound that is named as a salt.

Target: T1, MMP1 (collagenase 1) (Homo sapiens, UniProt P03956)
T1 construct: made in house; host or cells: mouse C127 cells, vector pBPV-MMT, secreted into culture medium
T1 sequence (P03956 100-469): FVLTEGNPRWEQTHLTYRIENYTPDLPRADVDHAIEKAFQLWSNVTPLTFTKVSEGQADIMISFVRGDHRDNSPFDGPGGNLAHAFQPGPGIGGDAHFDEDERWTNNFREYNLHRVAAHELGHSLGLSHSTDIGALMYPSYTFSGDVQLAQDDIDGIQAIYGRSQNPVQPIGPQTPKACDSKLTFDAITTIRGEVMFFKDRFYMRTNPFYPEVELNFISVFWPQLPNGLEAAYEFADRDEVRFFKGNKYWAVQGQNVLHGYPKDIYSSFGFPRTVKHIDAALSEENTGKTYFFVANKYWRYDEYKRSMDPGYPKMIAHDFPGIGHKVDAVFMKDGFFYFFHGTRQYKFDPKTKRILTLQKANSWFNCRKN
Assay: MMP1 (collagenase 1) fluorogenic substrate inhibition assay
Format: biochemical
Conditions: mean ± SEM of three independent experiments
Description: The inhibitory activities of compounds of formula I on MT1-MMP, MMP1 (collagenase 1) and MMP2 (gelatinase A) can be determined as follows:
Stock solutions of substrate (MCA-Pro-Leu-Gly-Leu-Dpa-Ala-Arg-NH2 (SEQ ID NO: 1), C. G. Knight, et al, FEBS lett., 296, 263-266, (1992)), are prepared in 100% DMSO at a concentration 1.0 mM.
Stock solutions of inhibitors are prepared in 100% DMSO. The inhibitor is diluted into the assays from a solution in 100% DMSO, and controls substitute an equal volume of DMSO so that the final DMSO concentration from inhibitor and substrate dilutions in all assays is 6.0%. Assays are performed in assay buffer (150 mM NaCl, 10 mM CaCl2, 50 mM Tris-Cl pH7.5, 0.05% Brij-35) containing 6.0% DMSO once the substrate and inhibitor are diluted into it. […] The fluorescence changes are monitored using an excitation wavelength of 320 nm and an emission wavelength of 340 nm. […] The reaction mixture is preincubated with the inhibitor for 30 min, the reaction is started by the addition of MMP enzyme and the fluorescence intensity is measured for 10 min. […]
C127 cells (ATCC-mouse mammary tumor cell line) are grown in Dulbecco's Modified Essential Medium supplemented with 10% heat inactivated fetal bovine serum and 1× antibiotic-antimycotic solution at 37° C. in a humidified CO2 incubator. […] Media from selected clones are analyzed for collagenase expression by an enzymatic assay. […]

- IC50: 1770 ± 144 nM
Compound: CN(C)c1ccc(CN(CC(=O)NO)S(=O)(=O)c2ccc(OCC3CC3)cc2)cc1 [Example 2, 2-[(4-Cyclopropylmethoxy-benzenesulfonyl)-(4-dimethylamino-benzyl-amino]-N-hydroxy-acetamide HCl salt]
